Laboratory results taken from patent publication US8937050B2, “Methods and compositions for treatment of autism” (The Johns Hopkins University, priority 2011, dated 2015).

Columns and labels:
[1] = tested on: HSP70 and HSP90; test: Immunoblot analyses of HSP expression; type: cell-based, human; conditions: for heat shock response (HSR): normal human fibroblasts
Method: (§4) Expression of key components of the HSR, UPR, the autophagic response, and the antioxidant response were monitored at the transcriptional, translational, and/or post-translational level. […] Due to the transient nature of these responses, several components of each pathway were monitored at various time points within a 24 hour treatment. At least two normal human fibroblast lines were tested in three or more independent experiments. […] The average of the maximal increase in protein expression within a 24 hour time frame was also compared to the untreated sample. Activation of each pathway was assessed by an increase in one or more components of each pathway.
Normal human fibroblasts were treated at various time points within 24 hours and the average of the maximum protein expression of HSP70 (70 kDa) and HSP90 (90 kDa) is plotted as in FIG. 2F. Actin (43 kDa) was used as a loading control. (UT=untreated cells; * statistical significance (p≦0.05); Bars=SEM for n≧3 independent experiments).

[2] = tested on: BIP, phosphorylated eIF2α, XBP1; test: Immunoblot analyses of UPR protein expression and XBP1 splicing; type: cell-based, human
Method: Cell lysates were collected in mammalian protein extraction reagent (m-PER; Thermo Scientific, Rockford, Ill.) plus 1×protease inhibitor (Sigma-Aldrich) and 1×Halt phosphatase inhibitor (Thermo Scientific). Denatured SDS-PAGE and immunoblot analyses were performed using the following antibodies: phosphorylated JNK and β-actin from Santa Cruz Biotechnology, HSP70, HSP90, BIP, phosphorylated eIF2α, and XBP1 from Cell Signaling, APG8 (Abgent, San Diego, Calif.), and SOD2 (Stressgen, Ann Arbor, Mich.). Quantitation was performed using a Fuji Intelligent Dark box II, FUJI LAS-1000 Lite software and Image Gauge v4.22 software (Tokyo, Japan).
(§1) Expression of key components of the HSR, UPR, the autophagic response, and the antioxidant response were monitored at the transcriptional, translational, and/or post-translational level. These responses are known to be transiently activated in response to various cellular stressors. The degree of induction of each component can vary depending on the metabolic state of the cell (e.g., confluency, cell passage number) (Kultz 2003; Lallemand et al., 1998; Westerheide et al., 2009). Due to the transient nature of these responses, several components of each pathway were monitored at various time points within a 24 hour treatment. At least two normal human fibroblast lines were tested in three or more independent experiments. […] The average of the maximal increase in protein expression within a 24 hour time frame was also compared to the untreated sample. Activation of each pathway was assessed by an increase in one or more components of each pathway.
(§2) UPR markers evaluated included the central UPR regulator glucose regulated protein 78 (BIP) and other components that are stimulated after the activation of the three ER transmembrane receptors: PKR-like ER kinase (PERK), inositol requiring 1 (IRE1), and activating transcription factor 6 (Fedoroff 2006). […] 2 alpha (eIF2a) is phosphorylated by PERK, attenuates general translation, and induces activating transcription factor 4 (ATF4). CHOP promotes reactivation of PERK. XBP1 mRNA is non-conventionally spliced by the endonuclease activity of IRE1 upon UPR activation.
(§3) Normal human fibroblasts were treated with drugs as indicated. The expression of the UPR genes ATF4, CHOP, and BIP was measured as described in FIG. 2E. […] Normal human fibroblasts were treated at various time points and the average of the maximum protein expression of BIP (78 kDa) and phosphorylated eIF2α (38 kDa) is plotted as in FIG. 2F. Actin (43 kDa) was used as a loading control and is the same blot as FIG. 2F. UT denotes untreated cells. M denotes marker lane. […] Normal human fibroblasts were treated. The expression of the unspliced form (XBP1-us; 33 kDa) and the activated and spliced form of XBP1 (XBP1-s; 54 kDa) was analyzed by immunoblotting. BP1-s is a larger protein than XBP1-us due to non-canonical mRNA splicing which results in a larger carboxy-terminal domain. […] The average of the maximum expression of XBP1-s (within 24 hrs.) is plotted as in FIG. 2F. Actin was used as a loading control.

[3] = tested on: JNK pathway; test: Immunoblot analysis of JNK phosphorylation; type: cell-based; conditions: normal human fibroblasts, within 24 hours; FIG. 2F
Method: Normal human fibroblasts were treated at various time points. Treatment was initiated at the indicated times prior to collection. The average of the maximum protein expression (within 24 hours) for three or more independent experiments is shown as fold change (drug treated/untreated). Actin (43 kDa) was the loading control. M denotes the marker lane. […] The * statistically significant increase in a measurement between drug treated and untreated or control samples or a statistically significant decrease in a measurement between drug treated and drug treated samples in the presence of SP600125 (p≦0.05) (n≧3 independent experiments unless otherwise noted) (Bars=SEM).

[4] = tested on: BCN1 and ATG5; test: RT-PCR of autophagy genes; type: cell-based, human; conditions: for ATG5 mRNA levels / BCN1 mRNA levels: normal human fibroblasts, FIG. 5A
Method: (§5) Following the manufacturer's protocols, DNase I-treated cDNA was synthesized using Superscript III or Thermoscript reverse transcriptase (Invitrogen). PCR reactions were performed in duplicate on the Roche Lightcycler 3.5 (Basel, Switzerland) or the Bio-Rad iCycler (Hercules, Calif.) using Quantitech SYBR green PCR mix (Qiagen, Valencia, Calif.). GeNorm software calculated a normalization factor for each sample using the relative amounts of at least two of the following reference genes, β2-microglobulin, glyceraldehyde-6-phosphate, actin, and/or eukaryotic elongation factor 1A (Vandesompele et al., 2002).
as §4
To monitor activation of autophagy, the expression of three classical autophagy markers was examined. The three classical autophagy markers are: (i) beclin-1 (BCN1), (ii) autophagy protein 5 (ATG5), and (iii) microtubule-associated protein 1 light chain 3 (LC3 or APG8). […] Normal human fibroblasts were treated as indicated. The expression of BCN1 and ATG5 were measured as described in FIG. 2E. After TSA treatment, the levels of ATG5 mRNA were measured in two independent experiments in duplicate.

[5] = tested on: NFE2L2, HMOX1, and SOD2; test: RT-PCR of antioxidant genes; type: cell-based, human; conditions: for HMOX1 mRNA levels / NFE2L2 mRNA levels / SOD2 mRNA levels: normal human fibroblasts, 18 hours, FIG. 5C
Method: as §5
The expression of three key components was examined—(i) nuclear factor erythroid 2-like 2 (NFE2L2), (ii) heme oxygenase 1 (HMOX1), and (iii) superoxide dismutase 2 (SOD2). […] Normal human fibroblasts were treated for 18 hours. The expression of NFE2L2, HMOX1, and SOD2 was measured as described in FIG. 2E.

[6] = tested on: SIRT1; test: SIRT1 protein expression in normal human fibroblasts; type: cell-based
[7] = tested on: HSPA1A (HSP70), DNAJC3 (HSP40), HSP90AA1 (HSP90); test: RT-PCR of heat shock response (HSR) genes; type: cell-based, human; conditions: for transcription of HSPA1A (HSP70): FIG. 3A
Method: as §5, §4
To evaluate its activation, the expression of heat shock protein (HSP) 40, HSP 70, and HSP 90 family members was monitored. […] Normal human fibroblasts were treated and the mRNA expression of HSPA1A (HSP70), DNAJC3 (HSP40), and HSP90AA1 (HSP90) was measured and plotted as in FIG. 2E.

[8] = tested on: ATF4, CHOP, and BIP; test: RT-PCR of unfolded protein response (UPR) genes; type: cell-based, human; conditions: for BIP expression at the transcriptional level: normal human fibroblasts, FIG. 4A
Method: Following the manufacturer's protocols, DNase I-treated cDNA was synthesized using Superscript III or Thermoscript reverse transcriptase (Invitrogen). PCR reactions were performed in duplicate on the Roche Lightcycler 3.5 (Basel, Switzerland) or the Bio-Rad iCycler (Hercules, Calif.) using Quantitech SYBR green PCR mix (Qiagen, Valencia, Calif.). GeNorm software calculated a normalization factor for each sample using the relative amounts of at least two of the following reference genes, β2-microglobulin, […], actin, and/or eukaryotic elongation factor 1A (Vandesompele et al., 2002). Primers for the various experiments described herein are listed below.
as §1, §2, §3

[9] = tested on: normal human fibroblasts; test: Quantitative in-cell western analysis with anti-ATP5B; type: cell-based; conditions: six days, FIG. 2B
Method: The immunostaining of primary human fibroblasts with anti-ATP5B, DRAQ5 (Cell Signaling Technologies, Danvers, Mass.; a cellular DNA stain to normalize cell number), and secondary antibody IRDye 800CW donkey anti-mouse IgG (Li-cor Biosciences, Lincoln, Nebr.) was identical to the indirect immunofluorescence procedure described above and performed in duplicate. Imaging and quantification were performed using the Odyssey Imager (L1-cor Biosciences).
In FIGS. 2A-B, the JNK inhibitor SP600125 (10 μM+inh) was utilized. […] Normal human fibroblasts were treated with each of the small four molecules with or without SP600125 for six days. Quantitative in-cell western analyses were performed using anti-ATP5B.

[10] = tested on: XALD fibroblasts; test: Inhibition studies: ATP5B immunofluorescence of drug-induced mitochondrial biogenesis; type: cell-based, human; conditions: four days; FIG. 2A
Method: Performed as described in Watkins et al., 1995 using 4% formaldehyde, 1% Triton X-100, primary antibody anti-ATP5B (Millipore, Billerica, Mass.) or anti-ABCD3 (Invitrogen, Carlsbad, Calif.), and secondary antibody sheep anti-mouse IgG FITC-conjugated (Santa Cruz Biotechnology, Santa Cruz, Calif.) or goat anti-rabbit IgG rhodamine-conjugated (Jackson ImmunoResearch, West Grove, Pa.).
Antimycin A (10 ng/mL), LY294002, PD98059, RO-31-8425, SB203580, SP600125, and L-NAME were obtained from Sigma. Compound C was from EMD Biosciences (Darmstadt, Germany). Human fibroblasts were treated with each inhibitor. Then, 45-75 min later, either 4PBA, HU, TSA, or SFN was added. Cells were stained four to six days after treatment with one of the small molecules. As a control for inhibitors dissolved in DMSO, fibroblasts were treated with an equivalent amount of DMSO in the absence of inhibitor. […]
In FIGS. 2A-B, the JNK inhibitor SP600125 (10 μM+inh) was utilized. […] XALD fibroblasts were treated with each drug for four days with or without SP600125. (400× magnification). […] Normal human fibroblasts were treated with each of the small four molecules with or without SP600125 for six days. Quantitative in-cell western analyses were performed using anti-ATP5B.

[11] = tested on: Sickle Cell Disease; conditions: Hsiao et al., 2006; cited from earlier work
[12] = tested on: Spinal Muscular Atrophy; conditions: Lunn et al., 2008; cited from earlier work
[13] = normal human fibroblasts, FIG. 4B

Row | Compound | heat shock response (HSR) [1] | BIP expression at the translational level [2, 13] | JNK pathway (JNK phosphorylation) [3] | ATG5 mRNA levels [4] | BCN1 mRNA levels [4] | HMOX1 mRNA levels [5] | NFE2L2 mRNA levels [5] | SOD2 mRNA levels [5] | SIRT1 protein expression [6] | transcription of HSPA1A (HSP70) ([7]; normal human fibroblasts) | BIP expression at the transcriptional level [8] | mitochondrial mass (ATP5B) compared to untreated cells [9] [fold] | mitochondrial biogenesis in XALD fibroblasts [10] | Therapeutic Effect [11] | Therapeutic Effect [12] | also measured
1 | C[S@@+]([O-])CCCCN=C=S [SFN, 1-isothiocyanato-4R-(methylsulfinyl)butane] | activated | significantly increased | activated | increased | increased | significantly increased | increased | increased | no marked changes | increased | significantly increased | 2.2 | increased | – | – | total HSP70 protein levels increase ([1]; in vitro sulforaphane studies): 3-4 fold; total HSP90 protein levels increase ([1]; in vitro sulforaphane studies): 3-4 fold; BIP increase at the translational level ([2]; in vitro sulforaphane studies): 2-3 fold; amount of spliced XBP1 protein increase ([2]; in vitro sulforaphane studies): 3-4; total amount of XBP1 protein increase ([2]; in vitro sulforaphane studies): 3-4; eIF2α phosphorylation [2, 13]: modestly increased; pro-survival capabilities of all three UPR branches ([2]; transcriptional, post-transcriptional, translational and post-translational levels): activated; ATG5 mRNA levels increase ([4]; in vitro sulforaphane studies): 3 fold; BCN1 mRNA levels increase ([4]; in vitro sulforaphane studies): 5 fold; expression of HMOX1 increase ([5]; in vitro sulforaphane studies): 6 fold; expression of NFE2L2 increase ([5]; in vitro sulforaphane studies): 3 fold; expression of SOD2 increase ([5]; in vitro sulforaphane studies): 4 fold; transcription of HSP40 increase ([7]; in vitro sulforaphane studies): 3 fold; transcription of HSP70 increase ([7]; in vitro sulforaphane studies): 7 fold; transcription of HSP 90 increase ([7]; in vitro sulforaphane studies): 3 fold; mRNA expression of heat-shock proteins genes increase ([7]; normal human fibroblasts, 5 micromolar (μM)): 3-7 fold; ATF4 mRNA expression increase ([8]; in vitro sulforaphane studies): 4-5 fold; BIP increase at the transcriptional level ([8]; in vitro sulforaphane studies): 2-3 fold; CHOP mRNA expression increase ([8]; in vitro sulforaphane studies): 4-5 fold
2 | NC(=O)NO [HU, hydroxyurea] | activated | significantly increased | activated | increased | not reproducibly changed | significantly increased | increased | increased | no marked changes | not stimulated | significantly increased | 1.8 | increased | increase F-cell production | increase percentage of full | –
3 | 4-phenylbutyrate [4PBA] | activated | significantly increased | activated | increased | increased | significantly decreased | increased | increased | no marked changes | increased | significantly increased | 2.4 | increased | increase F-cell production | increase percentage of full | –
4 | CC(/C=C/C(=O)NO)=C\[C@@H](C)C(=O)c1ccc(N(C)C)cc1 [TSA, trichostatin A] | activated | significantly increased | activated | increased | increased | significantly increased | increased | increased | no marked changes | increased | significantly increased | 2.5 | increased | increase F-cell production | increase percentage of full | –
